{"source": "patent US20160145242A1", "about": "“PHENYLIMIDAZOLE DERIVATIVE, AND THERAPEUTIC MEDICINE OR PREVENTIVE MEDICINE FOR INFLAMMATORY DISEASE, ETC” (NIPPON SODA CO., LTD., priority 2013, published 2016)", "key": {"CYP2D6": {"molecular_target": "T1, CYP2D6 (Homo sapiens, UniProt P10635)", "T1 construct": "Using human liver microsomes pooled as an enzyme source; from tissue; host or cells: pooled human liver microsomes", "T1 sequence (P10635 whole entry)": "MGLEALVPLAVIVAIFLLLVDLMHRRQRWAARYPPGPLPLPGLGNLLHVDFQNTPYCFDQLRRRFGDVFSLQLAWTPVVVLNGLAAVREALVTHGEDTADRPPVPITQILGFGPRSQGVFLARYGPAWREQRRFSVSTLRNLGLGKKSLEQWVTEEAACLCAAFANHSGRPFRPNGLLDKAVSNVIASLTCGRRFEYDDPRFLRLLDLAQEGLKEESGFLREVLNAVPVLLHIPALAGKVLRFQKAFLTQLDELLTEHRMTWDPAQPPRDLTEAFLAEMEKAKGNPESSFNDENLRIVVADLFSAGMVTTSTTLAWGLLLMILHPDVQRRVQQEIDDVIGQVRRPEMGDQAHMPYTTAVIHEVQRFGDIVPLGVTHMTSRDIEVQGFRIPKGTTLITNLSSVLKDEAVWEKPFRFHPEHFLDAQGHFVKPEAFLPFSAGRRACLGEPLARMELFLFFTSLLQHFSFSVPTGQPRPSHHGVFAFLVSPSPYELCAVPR", "experiment": "Cytochrome P450 inhibitory action, CYP2D6 in human liver microsomes", "format": "in vitro ADME", "settings": "substrate dextromethorphan", "method": "(§1) An inhibitory action of the compound of the present invention with respect to CYP2D6 (dextromethorphan was used as a substrate) and CYP3A4 (midazolam and testosterone were used as substrates) which are isozymes of cytochrome P450 (hereinafter, referred to as “CYP”) serving as a major drug-metabolizing enzyme was examined using human liver microsomes.\nUsing human liver microsomes pooled as an enzyme source, 1.3 mM NADP as a coenzyme, 3.3 mM D-glucose-6-phosphate, and 0.4 U/mL D-glucose-6-phosphate dehydrogenase, the corresponding substrate ([…] dextromethorphan for CYP2D6, 5 μM midazolam or 50 µM testosterone for CYP3A4) and the compound of the present invention were added such that the final concentration became 0.1, 1, 10 μM and then incubated at 37° C. for 10 minutes. The inhibition rate (%) of the compound of the present invention in each concentration was calculated by quantifying metabolites (CYP2D6; dextrorphan, CYP3A4; 1-hydroxymidazolam or 6β hydroxytestosterone) using HPLC-MS/MS and setting the value of the activity of an enzyme when drug was not incorporated therein as 100%. […]"}, "CYP3A4": {"molecular_target": "T2, CYP3A4 (Homo sapiens, UniProt P08684)", "T2 construct": "Using human liver microsomes pooled as an enzyme source; from tissue; host or cells: pooled human liver microsomes", "T2 sequence (P08684 whole entry)": "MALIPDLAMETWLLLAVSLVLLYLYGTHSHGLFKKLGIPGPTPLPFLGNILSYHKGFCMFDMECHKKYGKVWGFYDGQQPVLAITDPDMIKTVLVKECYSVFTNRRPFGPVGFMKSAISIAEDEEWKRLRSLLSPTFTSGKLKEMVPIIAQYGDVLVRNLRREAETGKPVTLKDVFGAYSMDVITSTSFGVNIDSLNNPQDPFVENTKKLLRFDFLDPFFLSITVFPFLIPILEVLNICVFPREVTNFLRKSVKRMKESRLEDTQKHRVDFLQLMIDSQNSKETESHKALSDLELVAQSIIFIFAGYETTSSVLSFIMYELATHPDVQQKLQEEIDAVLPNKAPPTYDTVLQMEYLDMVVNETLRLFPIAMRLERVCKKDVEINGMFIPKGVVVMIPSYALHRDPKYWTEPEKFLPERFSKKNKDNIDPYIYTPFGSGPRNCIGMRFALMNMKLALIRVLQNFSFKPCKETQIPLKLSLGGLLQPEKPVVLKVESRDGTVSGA", "experiment": "Cytochrome P450 inhibitory action, CYP3A4 in human liver microsomes", "format": "in vitro ADME", "settings": "for inhibition at 10 min, 10 µM: pooled human liver microsomes, read-out: inhibition rate in the shown concentration", "method": "as §1\nUsing human liver microsomes pooled as an enzyme source, 1.3 mM NADP as a coenzyme, 3.3 mM D-glucose-6-phosphate, and 0.4 U/mL D-glucose-6-phosphate dehydrogenase, the corresponding substrate ([…] dextromethorphan for CYP2D6, 5 μM midazolam or 50 µM testosterone for CYP3A4) and the compound of the present invention were added such that the final concentration became 0.1, 1, 10 μM and then incubated at 37° C. for 10 minutes. The inhibition rate (%) of the compound of the present invention in each concentration was calculated by quantifying metabolites (CYP2D6; dextrorphan, CYP3A4; 1-hydroxymidazolam or 6β hydroxytestosterone) using HPLC-MS/MS and setting the value of the activity of an enzyme when drug was not incorporated therein as 100%. 50% inhibitory concentration IC50 (μM) was calculated by drawing a straight line between the concentration where the inhibition rate exceeds 50% and the concentration where the inhibition rate is less than 50% in a graph showing a relationship between the inhibition rate and the concentration and interpolating the concentration that becomes 50% inhibition."}, "[1]": {"molecular_target": "T3, rabbit reticulocyte-derived 15-lipoxygenase (Oryctolagus cuniculus, UniProt P12530)", "T3 construct": "Rabbit reticulocyte-derived 15-lipoxygenase; from tissue; host or cells: rabbit reticulocytes", "T3 sequence (P12530 1-663)": "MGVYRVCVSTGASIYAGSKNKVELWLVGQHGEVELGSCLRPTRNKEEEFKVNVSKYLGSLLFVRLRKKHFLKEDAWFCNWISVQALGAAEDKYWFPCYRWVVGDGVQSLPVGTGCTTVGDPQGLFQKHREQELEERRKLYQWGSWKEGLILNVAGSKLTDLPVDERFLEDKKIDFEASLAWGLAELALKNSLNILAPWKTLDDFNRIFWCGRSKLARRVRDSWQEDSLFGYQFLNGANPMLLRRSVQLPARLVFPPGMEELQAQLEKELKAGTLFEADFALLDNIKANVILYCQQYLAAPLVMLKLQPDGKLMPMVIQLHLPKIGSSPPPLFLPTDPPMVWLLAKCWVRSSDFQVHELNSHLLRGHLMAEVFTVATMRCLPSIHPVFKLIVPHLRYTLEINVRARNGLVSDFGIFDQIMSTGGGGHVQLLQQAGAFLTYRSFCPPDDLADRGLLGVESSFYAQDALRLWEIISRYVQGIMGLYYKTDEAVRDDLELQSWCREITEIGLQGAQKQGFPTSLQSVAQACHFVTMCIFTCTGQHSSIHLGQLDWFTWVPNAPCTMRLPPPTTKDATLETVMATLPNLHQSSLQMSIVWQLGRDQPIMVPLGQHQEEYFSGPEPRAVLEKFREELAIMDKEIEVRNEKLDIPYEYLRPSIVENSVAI", "experiment": "15-Lipoxygenase activity inhibitory action", "format": "biochemical", "method": "The inhibitory action of the compound of the present invention with respect to the activity of the present enzyme was examined using rabbit reticulocyte-derived 15-lipoxygenase.\nRabbit reticulocyte-derived 15-lipoxygenase was reacted with 260 μM of linoleic acid and the amount of 13-hydroperoxide which was a reaction product was measured using an absorption spectrometer."}, "[2]": {"molecular_target": "T4, human platelet-derived thromboxane synthase (Homo sapiens, UniProt P24557)", "T4 construct": "host or cells: human recombinant cells (so in the source); platelets", "T4 sequence (P24557 1-533)": "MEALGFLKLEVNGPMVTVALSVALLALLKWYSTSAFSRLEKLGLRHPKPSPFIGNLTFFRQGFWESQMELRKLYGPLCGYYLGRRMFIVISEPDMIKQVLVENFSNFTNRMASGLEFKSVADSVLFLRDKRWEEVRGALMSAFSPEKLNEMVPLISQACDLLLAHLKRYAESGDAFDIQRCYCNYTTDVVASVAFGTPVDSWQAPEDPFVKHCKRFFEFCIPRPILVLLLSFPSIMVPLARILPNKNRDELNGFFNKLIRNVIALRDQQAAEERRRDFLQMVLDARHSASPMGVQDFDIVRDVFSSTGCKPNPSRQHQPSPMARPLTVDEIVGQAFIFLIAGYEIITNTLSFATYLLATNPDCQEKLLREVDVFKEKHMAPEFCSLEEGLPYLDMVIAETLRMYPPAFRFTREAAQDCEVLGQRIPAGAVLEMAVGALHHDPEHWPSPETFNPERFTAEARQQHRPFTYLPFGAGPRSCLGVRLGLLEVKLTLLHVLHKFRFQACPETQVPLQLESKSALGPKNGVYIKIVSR", "experiment": "Thromboxane synthase activity inhibitory action", "format": "biochemical", "settings": "read-out: thromboxane synthase activity inhibition rate", "method": "The inhibitory action of the compound according to the present invention with respect to the activity of the present enzyme was examined using human platelet-derived thromboxane synthase.\nThromboxane synthase of human recombinant cells was reacted with 2.10 μM of prostaglandin H2 and the amount of thromboxane B2 which was a reaction product was measured by an enzyme-linked immunosorbent assay. 3 μM of the compound according to the present invention dissolved in dimethyl sulfoxide was added to the reaction system and the inhibition rate of thromboxane B2 generation (thromboxane synthase activity inhibition rate) was measured."}, "[3]": {"test_system": "rattlesnake-derived phospholipase A2-II", "experiment": "Phospholipase A2-II activity inhibitory action", "format": "biochemical", "settings": "3 μM", "method": "The inhibitory action of the compound according to the present invention with respect to the activity of the present enzyme was examined using rattlesnake-derived phospholipase A2-II.\nThe rattlesnake-derived phospholipase A2-II was reacted with 0.030 μCi of 1-palmitoyl-2-[1-^14C]oleoyl-L-3-phosphatidylcholine and the amount of ^14C oleate which was a reaction product was measured by a radiation measurement method. 3 μM of the compound according to the present invention dissolved in dimethyl sulfoxide was added to the reaction system and the inhibition rate of ^14C oleate generation (phospholipase A2-II activity inhibition rate) was measured."}}, "note": "pIC50: −log10 of the molar value. Read-outs that look alike come from different tables or passages of the source.", "data": [{"smiles": "CC(=O)N1CCN(c2ccc(N)c(-n3ccnc3)c2)CC1", "note": "[Compound 1-1, 4-acetyl-1-(4-amino-3-imidazole-1-yl-phenyl)piperazine]", "values": [{"measurement": "inhibition at 10 min, 10 µM", "setting": "CYP2D6; pooled human liver microsomes, probe dextromethorphan (printed 5 M), 10 μM, read-out: inhibition rate in the shown concentration", "result": 36, "unit": "%"}, {"measurement": "pIC50", "setting": "CYP2D6", "result": "< 5.00"}, {"measurement": "inhibition at 10 min, 10 µM", "setting": "CYP3A4; probe midazolam (5 μM), substrate midazolam", "result": 28, "unit": "%"}, {"measurement": "inhibition at 10 min, 10 µM", "setting": "CYP3A4; probe testosterone (50 M [sic]), substrate testosterone", "result": 6, "unit": "%"}, {"measurement": "pIC50", "setting": "CYP3A4; substrate midazolam", "result": "< 5.00"}, {"measurement": "pIC50", "setting": "CYP3A4; substrate testosterone", "result": "< 5.00"}, {"measurement": "inhibition at 3 µM", "setting": "[1]; 3 μM, substrate linoleic acid 260 μM, read-out: 15-lipoxygenase activity inhibition rate", "result": 49, "unit": "%"}, {"measurement": "pIC50", "setting": "[1]; estimated from 49% inhibition at 3 μM, read-out: 50% inhibitory concentration with respect to 15-lipoxygenase activity", "result": "~5.52"}, {"measurement": "inhibition at 3 µM", "setting": "[2]", "result": 32, "unit": "%"}, {"measurement": "phospholipase A2-II activity inhibition rate", "setting": "[3]", "result": 12, "unit": "%"}]}]}
